How the values were obtained:
hERG = hERG (Homo sapiens (Human), UniProt Q12809); experiment: Patch clamp assay (hERG tail currents, whole-cell); type: cell-based; settings: hERG transfected HEK 293 cells; for hERG % Remaining 30 μM: 30 μM compound; for hERG % Remaining 10 μM: 10 μM compound; for hERG % Remaining 100 μM: 100 μM compound
Menin-MLL = Menin-MLL (Homo sapiens (Human), UniProt O00255); experiment: Determination of binding constants (Ki) to Menin-MLL (HTRF); settings: HTRF, 0.25 nM H-FL-Menin, 3.2 nM FITC-MLL-4-43, 24 hr incubation; for Ki: read-out: Menin-MLL Ki HTRF Assay: Ki
Sequence of Menin-MLL (O00255 whole entry): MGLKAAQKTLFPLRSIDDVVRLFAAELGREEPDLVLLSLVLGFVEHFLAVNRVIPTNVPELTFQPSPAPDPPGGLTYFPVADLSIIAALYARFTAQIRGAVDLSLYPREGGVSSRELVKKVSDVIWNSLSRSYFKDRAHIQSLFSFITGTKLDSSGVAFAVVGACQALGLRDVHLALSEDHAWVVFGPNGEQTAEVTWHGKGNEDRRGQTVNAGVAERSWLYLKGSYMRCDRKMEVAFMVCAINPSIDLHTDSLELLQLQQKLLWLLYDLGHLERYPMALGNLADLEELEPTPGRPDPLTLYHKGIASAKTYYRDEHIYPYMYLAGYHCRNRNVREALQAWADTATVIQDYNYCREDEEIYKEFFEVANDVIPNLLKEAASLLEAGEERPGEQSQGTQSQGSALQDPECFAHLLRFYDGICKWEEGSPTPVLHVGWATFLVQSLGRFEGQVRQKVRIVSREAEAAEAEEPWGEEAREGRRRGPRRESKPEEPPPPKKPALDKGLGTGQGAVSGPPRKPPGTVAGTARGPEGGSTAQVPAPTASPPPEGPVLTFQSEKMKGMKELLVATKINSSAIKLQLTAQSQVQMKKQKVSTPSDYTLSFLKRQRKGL

Sequence of hERG (Q12809 whole entry): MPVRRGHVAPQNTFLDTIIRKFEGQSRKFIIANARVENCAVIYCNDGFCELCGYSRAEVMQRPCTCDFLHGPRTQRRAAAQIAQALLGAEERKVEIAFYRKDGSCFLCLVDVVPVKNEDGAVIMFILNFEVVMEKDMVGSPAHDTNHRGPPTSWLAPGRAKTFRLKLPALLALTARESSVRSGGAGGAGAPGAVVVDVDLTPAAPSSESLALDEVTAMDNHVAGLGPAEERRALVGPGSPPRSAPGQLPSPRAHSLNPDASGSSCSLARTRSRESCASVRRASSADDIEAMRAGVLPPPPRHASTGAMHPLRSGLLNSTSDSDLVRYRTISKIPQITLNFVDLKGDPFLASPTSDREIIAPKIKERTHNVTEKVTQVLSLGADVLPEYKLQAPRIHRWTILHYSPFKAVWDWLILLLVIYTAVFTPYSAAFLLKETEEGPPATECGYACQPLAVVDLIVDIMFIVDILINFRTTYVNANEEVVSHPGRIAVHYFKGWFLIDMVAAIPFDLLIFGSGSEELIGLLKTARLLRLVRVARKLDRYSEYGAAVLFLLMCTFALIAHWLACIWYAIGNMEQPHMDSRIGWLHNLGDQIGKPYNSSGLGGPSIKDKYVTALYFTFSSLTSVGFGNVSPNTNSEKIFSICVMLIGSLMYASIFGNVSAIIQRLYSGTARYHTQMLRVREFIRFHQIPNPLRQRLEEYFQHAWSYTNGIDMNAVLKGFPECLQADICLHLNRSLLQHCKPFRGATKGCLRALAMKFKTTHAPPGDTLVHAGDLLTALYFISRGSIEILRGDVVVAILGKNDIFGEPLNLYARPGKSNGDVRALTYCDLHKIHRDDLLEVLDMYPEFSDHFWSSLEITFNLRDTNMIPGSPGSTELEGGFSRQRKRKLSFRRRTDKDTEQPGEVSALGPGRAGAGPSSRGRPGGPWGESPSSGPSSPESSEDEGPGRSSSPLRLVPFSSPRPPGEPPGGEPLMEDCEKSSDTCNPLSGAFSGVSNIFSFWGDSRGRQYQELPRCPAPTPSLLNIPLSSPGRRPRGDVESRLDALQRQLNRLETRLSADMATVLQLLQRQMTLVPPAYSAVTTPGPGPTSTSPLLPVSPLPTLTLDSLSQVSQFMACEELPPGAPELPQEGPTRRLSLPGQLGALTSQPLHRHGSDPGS

SMILES | hERG % Remaining 30 μM (hERG) | IC50 (hERG) [nM] | Ki (Menin-MLL) [nM] | hERG % Remaining 10 μM (hERG) | EC50 (Menin-MLL) [nM] | hERG % Remaining 100 μM (hERG) | IC50 (hERG; human, HEK 293 cells stably transfected with hERG) [nM]
CCNS(=O)(=O)N[C@@H]1CC[C@@H](CN2CCC3(CC2)CN(c2ncncc2Oc2ccc(F)cc2C(=O)N(CC(F)(F)F)C(C)C)C3)OC1 [Compound 153, 2-((4-(7-(((2S,5R)-5-((N-Ethylsulfamoyl)amino)tetrahydro-2H-pyran-2-yl)methyl)-2,7-diazaspiro[3.5]nonan-2-yl)pyrimidin-5-yl)oxy)-5-fluoro-N-isopropyl-N-(2,2,2-trifluoroethyl)benzamide] | +++ (“+++” means ≥66%) | ≥ 50000 | < 1 | – | – | – | –
CNS(=O)(=O)N[C@@H]1CC[C@@H](CN2CCC3(CC2)CN(c2ncncc2Oc2ccc(F)cc2C(=O)N(C(C)C)C2CC(F)(F)C2)C3)OC1 [Compound 154] | ++ (“++” means ≥33% and <66%) | – | < 1 | +++ (“+++” means ≥66%) | – | – | –
CCNS(=O)(=O)N[C@@H]1CC[C@@H](CN2CCC3(CC2)CN(c2ncncc2Oc2ccc(F)cc2C(=O)N(C(C)C)C2CC(F)(F)C2)C3)OC1 [Compound 155, N-(3,3-Difluorocyclobutyl)-2-((4-(7-(((2S,5R)-5-((N-ethylsulfamoyl)amino)tetrahydro-2H-pyran-2-yl)methyl)-2,7-diazaspiro[3.5]nonan-2-yl)pyrimidin-5-yl)oxy)-5-fluoro-N-isopropylbenzamide] | ++ (“++” means ≥33% and <66%) | – | < 1 | +++ (“+++” means ≥66%) | – | – | –
CC(C)N(C(=O)c1cc(F)ccc1Oc1cncnc1N1CC2(CCN(C[C@@H]3CC[C@@H](NS(=O)(=O)c4cnn(C)c4)CO3)CC2)C1)C1CC(F)(F)C1 [Compound 156, N-(3,3-Difluorocyclobutyl)-5-fluoro-N-isopropyl-2-((4-(7-(((2S,5R)-5-((1-methyl-1H-pyrazole)-4-sulfonamido)tetrahydro-2H-pyran-2-yl)methyl)-2,7-diazaspiro[3.5]nonan-2-yl)pyrimidin-5-yl)oxy)benzamide] | +++ (“+++” means ≥66%) | – | < 1 | – | – | – | –
C[C@@H]1COC[C@@H](C)N1C(=O)c1cc(F)ccc1Oc1cncnc1N1CC2(CCN(C[C@@H]3CC[C@@H](NS(=O)(=O)NCC4CC4)CO3)CC2)C1 [Compound 158, (Cyclopropylmethyl)({[(3R,6S)-6-{[2-(5-{2-[(3R,5R)-3,5-dimethylmorpholine-4-carbonyl]-4-fluorophenoxy}pyrimidin-4-yl)-2,7-diazaspiro[3.5]nonan-7-yl]methyl}oxan-3-yl]sulfamoyl})amine] | +++ (“+++” means ≥66%) | – | < 1 | – | – | – | –
C[C@@H]1COC[C@H](C)N1C(=O)c1cc(F)ccc1Oc1cncnc1N1CC2(CCN(C[C@@H]3CC[C@@H](NS(=O)(=O)N4CCC4)CO3)CC2)C1 [Compound 161, N-((3R,6S)-6-((2-(5-(2-((3R,5S)-3,5-Dimethylmorpholine-4-carbonyl)-4-fluorophenoxy)pyrimidin-4-yl)-2,7-diazaspiro[3.5]nonan-7-yl)methyl)tetrahydro-2H-pyran-3-yl)azetidine-1-sulfonamide] | +++ (“+++” means ≥66%) | – | < 1 | – | – | – | –
CC(C)N(C(=O)c1cc(F)ccc1Oc1cncnc1N1CC2(CCN(C[C@@H]3CC[C@@H](NS(=O)(=O)C4CC4)CO3)CC2)C1)[C@@H]1CCOC1 [Compound 164, 2-((4-(7-(((2S,5R)-5-(Cyclopropanesulfonamido)tetrahydro-2H-pyran-2-yl)methyl)-2,7-diazaspiro[3.5]nonan-2-yl)pyrimidin-5-yl)oxy)-5-fluoro-N-isopropyl-N-((R)-tetrahydrofuran-3-yl)benzamide] | +++ (“+++” means ≥66%) | – | < 1 | +++ (“+++” means ≥66%) | < 50 | – | –
CCN(CC)S(=O)(=O)N[C@@H]1CC[C@@H](CN2CCC3(CC2)CN(c2ncncc2Oc2ccc(F)cc2C(=O)N(C(C)C)[C@@H]2CCOC2)C3)OC1 [Compound 165, 2-((4-(7-(((2S,5R)-5-((N,N-Diethylsulfamoyl)amino)tetrahydro-2H-pyran-2-yl)methyl)-2,7-diazaspiro[3.5]nonan-2-yl)pyrimidin-5-yl)oxy)-5-fluoro-N-isopropyl-N-((R)-tetrahydrofuran-3-yl)benzamide] | ++ (“++” means ≥33% and <66%) | – | < 1 | +++ (“+++” means ≥66%) | – | – | –
CC(C)N(C(=O)c1cc(F)ccc1Oc1cncnc1N1CC2(CCN(C[C@@H]3CC[C@@H](NS(=O)(=O)N(C)C)CO3)CC2)C1)[C@@H]1CCOC1 [Compound 167, 2-((4-(7-(((2S,5R)-5-((N,N-Dimethylsulfamoyl)amino)tetrahydro-2H-pyran-2-yl)methyl)-2,7-diazaspiro[3.5]nonan-2-yl)pyrimidin-5-yl)oxy)-5-fluoro-N-isopropyl-N-((R)-tetrahydrofuran-3-yl)benzamide] | +++ (“+++” means ≥66%) | ≥ 50000 | < 1 | – | – | +++ (“+++” means ≥66%) | –
CCN(CC)S(=O)(=O)N[C@@H]1CC[C@@H](CN2CCC3(CC2)CN(c2ncncc2Oc2ccc(F)cc2C(=O)N(C(C)C)[C@H]2CCOC2)C3)OC1 [Compound 175, 2-((4-(7-(((2S,5R)-5-((N,N-Diethylsulfamoyl)amino)tetrahydro-2H-pyran-2-yl)methyl)-2,7-diazaspiro[3.5]nonan-2-yl)pyrimidin-5-yl)oxy)-5-fluoro-N-isopropyl-N-((S)-tetrahydrofuran-3-yl)benzamide] | + (“+” means <33%) | – | < 1 | ++ (“++” means ≥33% and <66%) | – | – | –
CC(C)N(C(=O)c1cc(F)ccc1Oc1cncnc1N1CC2(CCN(C[C@@H]3CC[C@@H](NS(=O)(=O)C4CC4)CO3)CC2)C1)[C@H]1CCOC1 [Compound 176, 2-((4-(7-(((2S,5R)-5-(Cyclopropanesulfonamido)tetrahydro-2H-pyran-2-yl)methyl)-2,7-diazaspiro[3.5]nonan-2-yl)pyrimidin-5-yl)oxy)-5-fluoro-N-isopropyl-N-((S)-tetrahydrofuran-3-yl)benzamide] | +++ (“+++” means ≥66%) | – | < 1 | +++ (“+++” means ≥66%) | – | +++ (“+++” means ≥66%) | ≥ 50000
CC(C)N(C(=O)c1cc(F)ccc1Oc1cncnc1N1CC2(CCN(C[C@@H]3CC[C@@H](NS(=O)(=O)N(C)C)CO3)CC2)C1)[C@H]1CCOC1 [Compound 177, 2-((4-(7-(((2S,5R)-5-((N,N-Dimethylsulfamoyl)amino)tetrahydro-2H-pyran-2-yl)methyl)-2,7-diazaspiro[3.5]nonan-2-yl)pyrimidin-5-yl)oxy)-5-fluoro-N-isopropyl-N-((S)-tetrahydrofuran-3-yl)benzamide] | +++ (“+++” means ≥66%) | – | < 1 | +++ (“+++” means ≥66%) | – | – | –
CC(C)N(CC#N)C(=O)c1cc(F)ccc1Oc1cncnc1N1CC2(CCN(C[C@@H]3CC[C@@H](NS(=O)(=O)N(C)C)CO3)CC2)C1 [Compound 181, N-(Cyanomethyl)-2-((4-(7-(((2S,5R)-5-((N,N-dimethylsulfamoyl)amino)tetrahydro-2H-pyran-2-yl)methyl)-2,7-diazaspiro[3.5]nonan-2-yl)pyrimidin-5-yl)oxy)-5-fluoro-N-isopropylbenzamide] | +++ (“+++” means ≥66%) | – | < 1 | – | – | – | –
CC(C)N(CC#N)C(=O)c1cc(F)ccc1Oc1cncnc1N1CC2(CCN(C[C@@H]3CC[C@@H](NS(=O)(=O)N4CCC4)CO3)CC2)C1 [Compound 182, 2-((4-(7-(((2S,5R)-5-(Azetidine-1-sulfonamido)tetrahydro-2H-pyran-2-yl)methyl)-2,7-diazaspiro[3.5]nonan-2-yl)pyrimidin-5-yl)oxy)-N-(cyanomethyl)-5-fluoro-N-isopropylbenzamide] | +++ (“+++” means ≥66%) | – | < 1 | – | – | – | –
CC(C)N(CCC#N)C(=O)c1cc(F)ccc1Oc1cncnc1N1CC2(CCN(C[C@@H]3CC[C@@H](NS(=O)(=O)N(C)C)CO3)CC2)C1 [Compound 183, N-(2-Cyanoethyl)-2-((4-(7-(((2S,5R)-5-((N,N-dimethylsulfamoyl)amino)tetrahydro-2H-pyran-2-yl)methyl)-2,7-diazaspiro[3.5]nonan-2-yl)pyrimidin-5-yl)oxy)-5-fluoro-N-isopropylbenzamide] | +++ (“+++” means ≥66%) | – | < 1 | – | – | – | –
CC(C)N(CC(F)F)C(=O)c1cc(F)ccc1Oc1nncnc1N1CC2(CCN(C[C@@H]3CC[C@@H](NS(=O)(=O)N4CCC4)CO3)CC2)C1 [Compound 189, 2-((5-(7-(((2S,5R)-5-(Azetidine-1-sulfonamido)tetrahydro-2H-pyran-2-yl)methyl)-2,7-diazaspiro[3.5]nonan-2-yl)-1,2,4-triazin-6-yl)oxy)-N-(2,2-difluoroethyl)-5-fluoro-N-isopropylbenzamide] | +++ (“+++” means ≥66%) | – | < 1 | – | – | – | –
CC(C)N(C(=O)c1cc(F)ccc1Oc1nncnc1N1CC2(CCN(C[C@@H]3CC[C@@H](NS(=O)(=O)C4CC4)CO3)CC2)C1)C(C)C [Compound 196, 2-((5-(7-(((2S,5R)-5-(Cyclopropanesulfonamido)tetrahydro-2H-pyran-2-yl)methyl)-2,7-diazaspiro[3.5]nonan-2-yl)-1,2,4-triazin-6-yl)oxy)-5-fluoro-N,N-diisopropylbenzamide] | +++ (“+++” means ≥66%) | – | < 1 | – | – | – | –
CCNS(=O)(=O)N[C@@H]1CC[C@@H](CN2CCC3(CC2)CN(c2ncnnc2Oc2ccc(F)cc2C(=O)N(C(C)C)C(C)C)C3)OC1 [Compound 198] | +++ (“+++” means ≥66%) | – | < 1 | – | – | – | –

Source: patent US11919901B2 (Syndax Pharmaceuticals, Inc., priority 2021, dated 2024)
